One block for each molecule: values may come before it.
Assays:
[1] = biological target: T1, Glutaminase kidney isoform, mitochondrial (Homo sapiens, UniProt O94925); experiment: Inhibition of C-terminal His-tagged human recombinant KGA transformed in Escherichia coli BL21 DE3 at pH 7.4 incubated for 3 hrs
T1 sequence (O94925 whole entry): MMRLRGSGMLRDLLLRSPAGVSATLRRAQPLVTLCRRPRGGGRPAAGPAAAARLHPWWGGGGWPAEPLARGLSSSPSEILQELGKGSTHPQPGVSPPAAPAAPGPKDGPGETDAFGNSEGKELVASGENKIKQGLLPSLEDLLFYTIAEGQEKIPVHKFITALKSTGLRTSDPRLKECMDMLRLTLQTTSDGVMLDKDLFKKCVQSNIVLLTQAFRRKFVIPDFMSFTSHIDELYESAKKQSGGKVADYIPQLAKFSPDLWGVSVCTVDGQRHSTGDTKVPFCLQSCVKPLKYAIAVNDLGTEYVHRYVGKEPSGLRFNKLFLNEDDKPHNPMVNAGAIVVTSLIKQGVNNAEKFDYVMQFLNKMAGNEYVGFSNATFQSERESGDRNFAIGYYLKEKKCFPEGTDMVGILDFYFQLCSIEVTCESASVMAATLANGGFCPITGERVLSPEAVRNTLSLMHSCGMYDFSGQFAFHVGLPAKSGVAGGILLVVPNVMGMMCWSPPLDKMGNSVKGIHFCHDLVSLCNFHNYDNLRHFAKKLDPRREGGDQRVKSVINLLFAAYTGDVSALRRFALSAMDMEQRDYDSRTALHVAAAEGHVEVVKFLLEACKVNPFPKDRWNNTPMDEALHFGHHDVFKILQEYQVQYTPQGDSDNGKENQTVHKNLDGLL

[2] = Inhibition of human recombinant Glutaminase
[3] = Inhibition of N-terminal 6His-tagged recombinant rat glutaminase expressed in Escherichia coli BL-21 DE3 measured after 20 mins by colorimetric analysis
[4] = Lipophilicity, logP of the compound at pH 7.4 by HPLC analysis; assay type: physicochemical; settings: buffer
SW1990 = experiment: Antiproliferative activity against human SW1990 cells assessed as reduction in cell viability measured after 72 hrs by CCK-8 assay; assay type: functional, cell-based; settings: SW1990, 72 h
[5] = Inhibition of 6His-tagged recombinant mouse GAC expressed in Escherichia coli preincubated for 10 mins and measured after 45 mins by chromatographic analysis
[6] = biological target: T1, Glutaminase kidney isoform, mitochondrial; experiment: Inhibition of N-terminal His-tagged GLS1 (unknown origin) expressed in Escherichia coli BL21 (DE3) preincubated for 20 mins and measured after 2 hrs
HCC1806 = experiment: Cytotoxicity against human HCC1806 cells assessed as reduction in cell viability measured after 48 hrs by MTT assay; assay type: functional, cell-based; settings: HCC1806, 48 h
[7] = biological target: T1, Glutaminase kidney isoform, mitochondrial; experiment: Inhibition of full length C terminal His-tagged human KGA expressed in Escherichia coli BL-21 DE3
[8] = Inhibition of N-terminal Histidine-tagged recombinant mouse GAC incubated for 1 hrs by fluorescence based analysis
[9] = Inhibition of full length C-terminal His-tagged rat Glutaminase expressed in Escherichia coli BL21 DE3 incubated for 12 hrs
[10] = Inhibition of human Glutaminase

Structure (SMILES): O=c1c2ccccc2[se]n1CCCCCCn1[se]c2ccccc2c1=O
IC50 [1]: 0.2 µM

Structure (SMILES): O=C(Cc1ccccc1)Nc1nnc(CCSCCc2nnc(NC(=O)Cc3ccccc3)s2)s1
IC50 [3]: 3.3 µM
logP [4]: 3.73
IC50 (SW1990): 35.3 µM

Structure (SMILES): O=C(Cc1cccc(OC(F)(F)F)c1)Nc1ccc(CCCCc2nnc(NC(=O)Cc3ccccn3)s2)nn1
logP [4]: 2.72
IC50 (SW1990): 13.1 µM

Structure (SMILES): O=C(Cc1ccccc1)Nc1nnc([C@@H]2CCC[C@@H](c3nnc(NC(=O)Cc4ccccc4)s3)C2)s1
IC50 [6]: 0.1 µM

Structure (SMILES): C=C1CC[C@]2(C(=O)O[C@@H]3O[C@H](CO[C@@H]4O[C@H](CO)[C@@H](O)[C@H](O)[C@H]4O)[C@@H](O)[C@H](O)[C@H]3O)CC[C@]3(C)C(=CCC4[C@@]5(C)CC[C@H](O[C@@H]6OC[C@H](O[C@@H]7OC[C@H](O)[C@H](O)[C@H]7O[C@@H]7O[C@@H](C)[C@H](O)[C@@H](O)[C@H]7O)[C@H](O)[C@H]6O)C(C)(C)C5CC[C@]43C)C2C1 (stereo partly drawn)
IC50 (HCC1806): 24.9 µM
IC50 [7]: 6.1 µM

Structure (SMILES): CN(C)c1ccc(C2Nc3ccc4cc(C(C)(C)C)ccc4c3C3=C2C(=O)CC(C)(C)C3)cc1Br (stereo not drawn)
IC50 [8]: 4.5 µM

Structure (SMILES): CC1(C)CCc2c(ccc3c2O[C@@H]2c4ccc(O)cc4O[C@H]3[C@H]2O)O1
IC50 [9]: 36.7 µM

Structure (SMILES): CN1CCc2cccc3c2[C@H]1Cc1ccc(O)c(O)c1-3 [APOMORPHINE]
IC50 [10]: 0.6 µM

Structure (SMILES): COc1ccc2c(c[n+](C)c3c4cc5c(cc4ccc23)OCO5)c1OC [CHELERYTHRINE CHLORIDE]
IC50 [10]: 0.03 µM

Structure (SMILES): O=c1c2ccccc2[se]n1-c1ccccc1 [EBSELEN]
IC50 [10]: 0.009 µM

Results, then the molecule that gave them:

IC50 [2]: ~9.3 µM
Structure (SMILES): CN(C)c1ccc(C2Nc3ccc4ccccc4c3C3=C2C(=O)CC(C)(C)C3)cc1Br (stereo not drawn)

IC50 [5]: ~50 µM
Structure (SMILES): CN(C)c1ccc(C2Nc3ccc4ccccc4c3C3=C2C(=O)CC(C)(C)C3)cc1 (stereo not drawn)

IC50 [5]: ~20 µM
Structure (SMILES): CC(C)c1ccc(C2Nc3ccc4ccccc4c3C3=C2C(=O)CC(C)(C)C3)cc1 (stereo not drawn)

IC50 [5]: ~10 µM
Structure (SMILES): CC1(C)CC(=O)C2=C(C1)c1c(ccc3ccccc13)NC2c1ccc(C(C)(C)C)cc1 (stereo not drawn)

Source: ChEMBL document CHEMBL5346939, “Targeting glutaminase 1 (GLS1) by small molecules for anticancer therapeutics” (Eur J Med Chem, 2023)
